“Also recorded” adds a separate entry of the source.
Assays:
[1] = tested on: antigen specific CD8+ T cells; assay: Immunization of mice with ovalbumin plus TLR and CD40 agonists; antigen-specific CD8+ T cells by tetramer staining; type: in vivo
[2] = tested on: spleen cells; assay: Type 1 IFN (IFNalphabeta) induction in spleen cells in vitro; type: cell-based
Text: Two forms of the recombinant protein are made; the light chain, heavy chain and HIV Gag with and without flagellin. The TLR7/8 agonist is conjugated to each other resulting in the production of proteins which stimulate CD40/TLR7/8. A proprietary TLR7/8 agonist, called 3M012 (3M Pharmaceuticals Inc, St. Paul Minn.) contains a photoconjugatable linker, which when placed under UV light, conjugates rapidly to terminal amino groups (lysines, arginines, N terminus) in the protein of interest. Conjugation to the TLR7/8 agonist is performed as described previously (Wille-Reece et al., J. Immunol. 174:7676 (2005)). Briefly, recombinant protein is placed in deep well polypropylene 96 well plates (Costar) with 50-100 microliters of 10 mg/ml 3M012 and exposed to longwave UV light for 15 minutes. Following UV exposure, the recombinant protein-TLR7/8 conjugate is washed through a 30 kd cutoff centricon concentrator to remove any free 3M012 and […] molecular weight drug conjugates. The recombinant protein-TLR7/8 conjugates are washed in PBS pH 7.5-8 and analyzed as described above for anti-CD40 and TLR5 activity (for recombinant protein containing flagellin). The amount of 3M012 conjugated to the recombinant protein is determined in vitro by type 1 IFN (IFNalphabeta) induction in spleen cells as previously described (Wille-Reece et al. (Id)).

| Substance | synergy with anti-CD40 for inducing CD8+ T cell expansion ([1]; whole ovalbumin + anti-CD40 + TLR agonist) | IFN alphabeta induction [2] | synergy with anti-CD40 for inducing CD8+ T cell expansion ([1]; mouse, in vivo) |
| --- | --- | --- | --- |
| flagellin | able to synergize with anti-CD40; also recorded: effectively synergizes with anti-CD40 | does not induce IFN alphabeta |  |
| poly IC |  |  | able to synergize with anti-CD40 |

Reference: patent publication US20090004194A1, “TLR AGONIST (FLAGELLIN)/CD40 AGONIST/ANTIGEN PROTEIN AND DNA CONJUGATES AND USE THEREOF FOR INDUCING SYNERGISTIC ENHANCEMENT IN IMMUNITY” (Regents of the University of Colorado, priority 2006, published 2009)
